Source: US7462600B2, “Macrolides” (Pfizer Inc, priority 2004, dated 2008)
≈ marks a conversion by molar mass, not a printed value. Read-outs that look alike come from different tables or passages of the source.

Assays:
Type in all cases: cell-based
[1] = test system: Haemophilus influenzae 1218; experiment: MIC, microtiter broth dilution (NCCLS M100-S14), H. influenzae 1218 (susceptible)
Procedure, shortened: (§1)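 DMSO stocks, 40 mg/ml; trays scored for MIC following M100-S14 (NCCLS).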

[2] = test system: Streptococcus pneumoniae 1095; details: microtiter broth dilution
Procedure, shortened: as §1

[3] = test system: Streptococcus pneumoniae 1175; details: microtiter broth dilution
Procedure, shortened: as §1

[4] = test system: Streptococcus pyogenes 1079; experiment: MIC, microtiter broth dilution (NCCLS M100-S14), S. pyogenes 1079 (ermB)
Procedure, shortened: as §1

[5] = test system: Streptococcus pneumoniae 1016; experiment: MIC, microtiter broth dilution (NCCLS M100-S14), S. pneumoniae 1016 (susceptible)
Procedure, shortened: as §1

[6] = H. influenzae 1218 (susceptible)
[7] = S. pneumoniae 1016 (susceptible)

| Compound | MIC H. influenzae 1218 ([1]; Haemophilus influenzae 1218) [µg/mL] | MIC S. pneumo. 1095 ([2]; Streptococcus pneumoniae 1095) [µg/mL] | MIC S. pneumo. 1175 ([3]; Streptococcus pneumoniae 1175) [µg/mL] | MIC S. pyogenes 1079 ([4]; Streptococcus pyogenes 1079) [µg/mL] | MIC S. pneumo. 1016 ([5]; Streptococcus pneumoniae 1016) [µg/mL] | MIC H. influenzae 1218 [1, 6] [µg/mL] | MIC S. pneumo. 1095 ([2]; S. pneumoniae 1095 (ermB)) [µg/mL] | MIC S. pneumo. 1175 ([3]; S. pneumoniae 1175 (mefA)) [µg/mL] | MIC S. pyogenes 1079 ([4]; S. pyogenes 1079 (ermB)) [µg/mL] | MIC S. pneumo. 1016 [5, 7] [µg/mL] |
| --- | --- | --- | --- | --- | --- | --- | --- | --- | --- | --- |
| CCC1OC(=O)C(C)C(=O)C(C)C(OC2OC(C)CC(N(C)C)C2O)C(C)(OC)CC(C)C(=O)C(C)C2N(CC3CN(Cc4cnn5ccccc45)C3)C(=O)OC12C.O=CO (stereo not drawn) [4.42] | 0.12 | 0.5 | <0.06 | >64.00 | <0.06 |  |  |  |  |  |
| CCC1OC(=O)C(C)C(=O)C(C)C(OC2OC(C)CC(N(C)C)C2O)C(C)(OC)CC(C)C(=O)C(C)C2N(C3CN(Cc4cccc5cccnc45)C3)C(=O)OC12C (stereo not drawn) [Example 1.05, (quinolin-8-yl)methyl] | 0.25 (≈ 0.309 µM) | <0.06 | 0.12 (≈ 0.148 µM) | 64 (≈ 79.1 µM) | <0.06 |  |  |  |  |  |
| CCC1OC(=O)C(C)C(=O)C(C)C(OC2OC(C)CC(N(C)C)C2O)C(C)(OC)CC(C)C(=O)C(C)C2N(CC3CCN(Cc4cnc(-c5ccccc5)[nH]4)CC3)C(=O)OC12C (stereo not drawn) [15.08] |  |  |  |  |  | 2 (≈ 2.31 µM) | >64.00 | 1 (≈ 1.15 µM) | >64.00 | <0.06 |
| CC[C@H]1OC(=O)[C@H](C)C(=O)[C@H](C)[C@@H](O[C@@H]2O[C@H](C)C[C@H](N(C)C)[C@H]2O)[C@](C)(OC)C[C@@H](C)C(=O)[C@H](C)[C@H]2N(CC3(C)CN(Cc4ccc5cccnc5c4)C3)C(=O)O[C@]12C [6.06] | 1 (≈ 1.19 µM) | 0.5 (≈ 0.597 µM) | 0.5 (≈ 0.597 µM) | >64.00 | <0.06 |  |  |  |  |  |
| CCC1OC(=O)C(C)C(=O)C(C)C(OC2OC(C)CC(N(C)C)C2O)C(C)(OC)CC(C)C(=O)C(C)C2N(C3CN(S(=O)(=O)c4ccc(-n5nc(C)c(=O)[nH]c5=O)cc4)C3)C(=O)OC12C (stereo not drawn) [Example 3.14, 4-(4,5-dihydro-6-methyl-3,5-dioxo-1,2,4-triazin-2(3H)-yl)benzenesulfonyl] | 1 (≈ 1.07 µM) | 1 (≈ 1.07 µM) | 1 (≈ 1.07 µM) | >64.00 | <0.06 |  |  |  |  |  |
| CCC1OC(=O)C(C)C(=O)C(C)C(OC2OC(C)CC(N(C)C)C2O)C(C)(OC)CC(C)C(=O)C(C)C2N(C3CN(S(=O)(=O)c4ccc(-c5n[nH]c(=O)[nH]c5=O)cc4)C3)C(=O)OC12C (stereo not drawn) [Example 3.20, 3-descladinosyl-11,12-dideoxy-6-O-methyl-3-oxo-12,11-(oxycarbonyl-(1-(4-(2,3,4,5-tetrahydro-3,5-dioxo-1,2,4-triazin-6-yl)benzenesulfonyl)-azetidin-3-yl)-imino)-erythromycin A] | 0.5 (≈ 0.544 µM) | <0.06 | 2 (≈ 2.18 µM) | 8 (≈ 8.7 µM) | <0.06 |  |  |  |  |  |
| CCC1OC(=O)C(C)C(=O)C(C)C(OC2OC(C)CC(N(C)C)C2O)C(C)(OC)CC(C)C(=O)C(C)C2N(C3CN(Cc4ccncc4Br)C3)C(=O)OC12C (stereo not drawn) [Example 1.77, 3-descladinosyl-11,12-dideoxy-6-O-methyl-3-oxo-12,11-(oxycarbonyl-(1-(3-bromopyridine-4-methyl)-azetidin-3-yl)-imino)-erythromycin A] | 0.5 (≈ 0.597 µM) | <0.063 | <0.063 | 1 (≈ 1.19 µM) | <0.063 |  |  |  |  |  |
| CCCC(c1ccnc2ccccc12)N1CC(N2C(=O)OC3(C)C(CC)OC(=O)C(C)C(=O)C(C)C(OC4OC(C)CC(N(C)C)C4O)C(C)(OC)CC(C)C(=O)C(C)C23)C1 (stereo not drawn) [Example 1.64, 3-descladinosyl-11,12-dideoxy-6-O-methyl-3-oxo-12,11-(oxycarbonyl-(1-(1-(quinolin4-yl)-butyl)-azetidin-3-yl)-imino)-erythromycin A] | 1 (≈ 1.17 µM) | <0.06 | <0.06 | 1 (≈ 1.17 µM) | <0.06 |  |  |  |  |  |
| CCC1OC(=O)C(C)C(=O)C(C)C(OC2OC(C)CC(N(C)C)C2O)C(C)(OC)CC(C)C(=O)C(C)C2N(CC3CN(Cc4ccc5ccccc5c4)C3)C(=O)OC12C (stereo not drawn) [4.29] | 0.12 (≈ 0.146 µM) | 2 (≈ 2.43 µM) | <0.06 | 16 (≈ 19.5 µM) | <0.06 |  |  |  |  |  |
| CCC1OC(=O)C(C)C(=O)C(C)C(OC2OC(C)CC(N(C)C)C2O)C(C)(OC)CC(C)C(=O)C(C)C2N(CC3CCCN3C(=O)c3ccc4cccnc4c3)C(=O)OC12C.O=CO (stereo not drawn) [10.15] |  |  |  |  |  | 2 | <0.06 | 0.25 | >64.00 | <0.06 |
| CCC1OC(=O)C(C)C(=O)C(C)C(OC2OC(C)CC(N(C)C)C2O)C(C)(OC)CC(C)C(=O)C(C)C2N(C3CN(S(=O)(=O)c4ccc(-c5ccon5)s4)C3)C(=O)OC12C (stereo not drawn) [Example 3.33, 3-descladinosyl-11,12-dideoxy-6-O-methyl-3-oxo-12,11-(1-(oxycarbonyl-(5-(isoxazol-3-yl)thiophene-2-sulfonyl)-azetidin-3-yl)-imino)-erythromycin A] | 0.5 (≈ 0.567 µM) | <0.06 | <0.06 | 8 (≈ 9.08 µM) | <0.06 |  |  |  |  |  |
| CCC1OC(=O)C(C)C(=O)C(C)C(OC2OC(C)CC(N(C)C)C2O)C(C)(OC)CC(C)C(=O)C(C)C2N(CC3CCCN3C(=O)c3cccc4ncoc34)C(=O)OC12C (stereo not drawn) [10.23] |  |  |  |  |  | 8 (≈ 9.51 µM) | <0.06 | 1 (≈ 1.19 µM) | >64.00 | <0.06 |
| 3-descladinosyl-11,12-dideoxy-6-O-methyl-3-oxo-12,11-(oxycarbonyl-(1-((1H-benzo[d]imidazol-4-yl)-methyl)-(R)-pyrrolidin-3-yl)-imino)-erythromycin A [Example 9.06] |  |  |  |  |  | 0.25 | <0.06 | <0.06 | 4 | <0.06 |
| CCC1OC(=O)C(C)C(=O)C(C)C(OC2OC(C)CC(N(C)C)C2O)C(C)(OC)CC(C)C(=O)C(C)C2N(C3CN(Cc4ccc5nc(C)sc5n4)C3)C(=O)OC12C (stereo not drawn) [Example 1.34, (2-methyl-thiazolo[5,4-b]pyridin-5-yl)methyl] | 0.5 (≈ 0.602 µM) | <0.06 | 0.12 (≈ 0.145 µM) | 32 (≈ 38.6 µM) | <0.06 |  |  |  |  |  |
| 3-descladinosyl-11,12-dideoxy-6-O-methyl-3-oxo-12,11-(oxycarbonyl-(1-((isoquinolin-4-yl)-methyl)-azetidin-3-yl)-imino)-erythromycin A [Example 1.30] | 1 | <0.06 | <0.06 | 4 | <0.06 |  |  |  |  |  |
| CCC1OC(=O)C(C)C(=O)C(C)C(OC2OC(C)CC(N(C)C)C2O)C(C)(OC)CC(C)C(=O)C(C)C2N(CC3CN(Cc4ccnc5ccccc45)C3)C(=O)OC12C (stereo not drawn) [4.13] | 1 (≈ 1.22 µM) | 0.5 (≈ 0.608 µM) | <0.06 | 32 (≈ 38.9 µM) | <0.06 |  |  |  |  |  |
| CCC1OC(=O)C(C)C(=O)C(C)C(OC2OC(C)CC(N(C)C)C2O)C(C)(OC)CC(C)C(=O)C(C)C2N(CC3CCN(Cc4ccc(-c5ccccn5)cc4)C3)C(=O)OC12C (stereo not drawn) [13.05] |  |  |  |  |  | 4 (≈ 4.63 µM) | 16 (≈ 18.5 µM) | 0.5 (≈ 0.579 µM) | >64.00 | <0.06 |
| CCC1OC(=O)C(C)C(=O)C(C)C(OC2OC(C)CC(N(C)C)C2O)C(C)(OC)CC(C)C(=O)C(C)C2N(C3CN(C(=O)c4ccnc(-n5cnnn5)c4)C3)C(=O)OC12C (stereo not drawn) [Example 2.19, 2-(1H-tetrazol-1-yl)pyridine-4-carboxyl] | 32 (≈ 38.1 µM) | >64.00 | 0.5 (≈ 0.595 µM) | >64.00 | <0.06 |  |  |  |  |  |
